Publication PMC10892041, “Vanadium Complexes with Thioanilide Derivatives of Amino Acids: Inhibition of Human Phosphatases and Specificity in Various Cell Models of Metabolic Disturbances” (Pharmaceuticals, 2024)
Like-named read-outs stand apart in the source and are kept apart here.

Key:
myocytes C2C12 = experiment: Viability of myocytes C2C12 after 24 h incubation (resazurin-based reagent); details: 50 µM; 24 h incubation; control solvent only
PTP1B = target: T1, PTP1B (Homo sapiens, UniProt P18031); details: cited from earlier work
T1 construct: purchased Sigma-Aldrich
T1 sequence (P18031 1-435): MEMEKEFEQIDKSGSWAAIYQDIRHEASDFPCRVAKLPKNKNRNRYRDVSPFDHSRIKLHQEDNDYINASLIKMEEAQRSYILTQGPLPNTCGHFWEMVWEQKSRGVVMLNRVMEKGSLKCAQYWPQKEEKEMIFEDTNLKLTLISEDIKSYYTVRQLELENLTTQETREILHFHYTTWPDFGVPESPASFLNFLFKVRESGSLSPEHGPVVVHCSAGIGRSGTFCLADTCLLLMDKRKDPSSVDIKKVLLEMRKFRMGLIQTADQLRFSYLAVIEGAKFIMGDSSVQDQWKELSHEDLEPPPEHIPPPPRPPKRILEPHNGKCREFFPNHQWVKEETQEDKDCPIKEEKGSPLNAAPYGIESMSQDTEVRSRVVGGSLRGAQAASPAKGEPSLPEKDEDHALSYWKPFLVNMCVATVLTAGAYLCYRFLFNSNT

Row | SMILES | Cell viability of myocytes C2C12, % of the control (myocytes C2C12) | IC50 (PTP1B; lower end of published range) | IC50 (PTP1B; upper end of published range)
1 | Cc1occc(=O)c1[O-].Cc1occc(=O)c1[O-].[O]=[V+2] [BMOV, bis(maltolato)oxidovanadium(IV), reference compound] | 90 ± 4% | – | –
2 | O=S(=O)([O-])[O-].[O]=[V+2] [VOSO4, reference compound] | – | 0.018 µM | 0.38 µM
